In PubChem BioAssay AID248 (DTP/NCI, 2004):
Several values for one entry are separate records, joined by “and”; a condition that tells them apart may be missing. Equal values may be shown once. Toxic doses and inconclusive results are not listed. Rule as the data show it: active = T/C of 150% or more; inactive = T/C below 125%.

Tested on: L1210 leukemia ip in BDF1 mice, survival T/C
Test: NCI In Vivo Anticancer Drug Screen. Data for tumor model L1210 Leukemia (intraperitoneal) in B6D2F1 (BDF1) mice
Conditions: higher = longer survival
Summary of the method: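 Mice bearing the transplanted tumor received compound or vehicle. Survival of the treated group was divided by that of the vehicle-treated control group to give the ratio.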

[1] = endpoint: mean survival time, dose: 100.0 mg/kg/injection, schedule: Q01DX009 (ip), vehicle: saline with Tween-80
[2] = endpoint: mean survival time, dose: 100.0 mg/kg/injection, schedule: Q04DX003 (ip), vehicle: saline
[3] = endpoint: mean survival time, dose: 200.0 mg/kg/injection, schedule: Q01DX009 (ip), vehicle: saline with Tween-80
[4] = endpoint: mean survival time, dose: 200.0 mg/kg/injection, schedule: Q04DX003 (ip), vehicle: saline
[5] = endpoint: mean survival time, dose: 400.0 mg/kg/injection, schedule: Q04DX003 (ip), vehicle: saline
[6] = endpoint: mean survival time, dose: 100.0 mg/kg/injection, schedule: Q04DX003 (ip), vehicle: Klucel (hydroxypropylcellulose) (HPC)
[7] = endpoint: mean survival time, dose: 200.0 mg/kg/injection, schedule: Q04DX003 (ip), vehicle: Klucel (hydroxypropylcellulose) (HPC)
[8] = endpoint: mean survival time, dose: 400.0 mg/kg/injection, schedule: Q04DX003 (ip), vehicle: Klucel (hydroxypropylcellulose) (HPC)

Measured: T/C

Cc1ccc(Cl)cc1NC(=O)OCCCl
inactive: [1] 95 % of control | [2] 97 % of control | [3] 91 % of control | [4] 100 % of control | endpoint: mean survival time, dose: 400.0 mg/kg/injection, schedule: Q01DX009 (ip), vehicle: saline with Tween-80 91 % of control | [5] 95 % of control

CNC(=S)NC1CC(OC2CC(O)(C(C)=O)Cc3c(O)c4c(c(O)c32)C(=O)c2c(OC)cccc2C4=O)OC(C)C1O (stereo not given)
inactive: endpoint: mean survival time, dose: 2.0 mg/kg/injection, schedule: Q04DX003 (ip), vehicle: water 107 % of control | endpoint: mean survival time, dose: 3.12 mg/kg/injection, schedule: Q01DX009 (ip), vehicle: saline with Tween-80 115 % of control | endpoint: mean survival time, dose: 4.0 mg/kg/injection, schedule: Q04DX003 (ip), vehicle: water 106 % of control | endpoint: mean survival time, dose: 6.25 mg/kg/injection, schedule: Q01DX009 (ip), vehicle: saline with Tween-80 120 % of control | endpoint: mean survival time, dose: 8.0 mg/kg/injection, schedule: Q04DX003 (ip), vehicle: water 107 % of control | endpoint: mean survival time, dose: 12.5 mg/kg/injection, schedule: Q04DX003 (ip), vehicle: saline with Tween-80 108 % of control | endpoint: mean survival time, dose: 16.0 mg/kg/injection, schedule: Q04DX003 (ip), vehicle: water 109 % of control and 110 % of control | endpoint: mean survival time, dose: 25.0 mg/kg/injection, schedule: Q04DX003 (ip), vehicle: saline with Tween-80 124 % of control | endpoint: mean survival time, dose: 32.0 mg/kg/injection, schedule: Q04DX003 (ip), vehicle: water 116 % of control | endpoint: mean survival time, dose: 50.0 mg/kg/injection, schedule: Q04DX003 (ip), vehicle: saline with Tween-80 121 % of control | endpoint: mean survival time, dose: 64.0 mg/kg/injection, schedule: Q04DX003 (ip), vehicle: water 110 % of control | endpoint: mean survival time, dose: 125.0 micrograms/kg/injection, schedule: Q04DX003 (ip), vehicle: water 96 % of control | endpoint: mean survival time, dose: 250.0 micrograms/kg/injection, schedule: Q04DX003 (ip), vehicle: water 103 % of control | endpoint: mean survival time, dose: 500.0 micrograms/kg/injection, schedule: Q04DX003 (ip), vehicle: water 102 % of control | endpoint: mean survival time, dose: 1000.0 micrograms/kg/injection, schedule: Q04DX003 (ip), vehicle: water 103 % of control | endpoint: mean survival time, dose: 2000.0 micrograms/kg/injection, schedule: Q04DX003 (ip), vehicle: water 98 % of control

CC(C)(CC(=O)O)Cc1ccccc1
inactive: endpoint: mean survival time, dose: 50.0 mg/kg/injection, schedule: Q01DX009 (ip), vehicle: saline with Tween-80 101 % of control | [1] 93 % of control | [3] 101 % of control

COc1cc(OC)c(/C=C/c2cc3c4ccccc4ccc3[n+](C)c2)c(OC)c1
inactive: endpoint: mean survival time, dose: 6.25 mg/kg/injection, schedule: Q01DX001 (ip), vehicle: saline with Tween-80 104 % of control | endpoint: mean survival time, dose: 12.5 mg/kg/injection, schedule: Q01DX001 (ip), vehicle: saline with Tween-80 107 % of control

O=C(COC(=O)c1ccccc1C(=O)c1ccccc1O)c1ccc(-c2ccccc2)cc1
inactive: endpoint: mean survival time, dose: 200.0 mg/kg/injection, schedule: Q01DX001 (ip), vehicle: saline 91 % of control | endpoint: mean survival time, dose: 400.0 mg/kg/injection, schedule: Q01DX001 (ip), vehicle: saline 91 % of control

O=[N+]([O-])c1cccc(C=Nc2ccc(CCO)cc2)c1
inactive: endpoint: mean survival time, dose: 100.0 mg/kg/injection, schedule: Q04DX002 (ip), vehicle: Klucel (hydroxypropylcellulose) (HPC) 104 % of control | endpoint: mean survival time, dose: 200.0 mg/kg/injection, schedule: Q04DX002 (ip), vehicle: Klucel (hydroxypropylcellulose) (HPC) 121 % of control | endpoint: mean survival time, dose: 400.0 mg/kg/injection, schedule: Q04DX002 (ip), vehicle: Klucel (hydroxypropylcellulose) (HPC) 107 % of control

CCN(CC)C(=S)S
inactive: endpoint: mean survival time, dose: 50.0 mg/kg/injection, schedule: Q04DX003 (ip), vehicle: saline 101 % of control | endpoint: mean survival time, dose: 100.0 mg/kg/injection, schedule: Q01DX001 (ip), vehicle: carboxymethylcellulose (CMC) 106 % of control | endpoint: mean survival time, dose: 100.0 mg/kg/injection, schedule: Q01DX009 (ip), vehicle: other 107 % of control | [2] 103 % of control | endpoint: mean survival time, dose: 125.0 mg/kg/injection, schedule: Q01DX010 (ip), vehicle: saline 103 % of control and 90 % of control | endpoint: mean survival time, dose: 200.0 mg/kg/injection, schedule: Q01DX001 (ip), vehicle: carboxymethylcellulose (CMC) 96 % of control | endpoint: mean survival time, dose: 200.0 mg/kg/injection, schedule: Q01DX009 (ip), vehicle: other 103 % of control | [4] 106 % of control | endpoint: mean survival time, dose: 250.0 mg/kg/injection, schedule: Q01DX010 (ip), vehicle: saline 97 % of control and 87 % of control | endpoint: mean survival time, dose: 400.0 mg/kg/injection, schedule: Q01DX001 (ip), vehicle: carboxymethylcellulose (CMC) 102 % of control | endpoint: mean survival time, dose: 400.0 mg/kg/injection, schedule: Q01DX009 (ip), vehicle: other 102 % of control | [5] 103 % of control | endpoint: mean survival time, dose: 500.0 mg/kg/injection, schedule: Q01DX010 (ip), vehicle: saline 100 % of control and 91 % of control | endpoint: mean survival time, dose: 1000.0 mg/kg/injection, schedule: Q01DX010 (ip), vehicle: saline 114 % of control | endpoint: median survival time, dose: 500.0 mg/kg/injection, schedule: Q01DX001 (ip), vehicle: saline 103 % of control | endpoint: median survival time, dose: 1000.0 mg/kg/injection, schedule: Q01DX001 (ip), vehicle: saline 108 % of control

CCCCOC(=O)Nc1ccc(N)c(NC(=O)OCCCC)n1
inactive: endpoint: mean survival time, dose: 100.0 mg/kg/injection, schedule: Q01DX009 (ip), vehicle: gum acacia 88 % of control | endpoint: mean survival time, dose: 100.0 mg/kg/injection, schedule: Q04DX003 (ip), vehicle: gum acacia 99 % of control | endpoint: mean survival time, dose: 200.0 mg/kg/injection, schedule: Q01DX009 (ip), vehicle: gum acacia 93 % of control | endpoint: mean survival time, dose: 200.0 mg/kg/injection, schedule: Q04DX003 (ip), vehicle: gum acacia 99 % of control | endpoint: mean survival time, dose: 400.0 mg/kg/injection, schedule: Q01DX009 (ip), vehicle: gum acacia 91 % of control | endpoint: mean survival time, dose: 400.0 mg/kg/injection, schedule: Q04DX003 (ip), vehicle: gum acacia 97 % of control

O=S(=O)(F)c1cc(Cl)c(S)cc1Cl
inactive: endpoint: mean survival time, dose: 25.0 mg/kg/injection, schedule: Q04DX003 (ip), vehicle: Klucel (hydroxypropylcellulose) (HPC) 96 % of control | endpoint: mean survival time, dose: 50.0 mg/kg/injection, schedule: Q04DX003 (ip), vehicle: Klucel (hydroxypropylcellulose) (HPC) 96 % of control | [6] 98 % of control and 106 % of control

NC(N)=N/N=C/c1ccccc1Cl
inactive: endpoint: mean survival time, dose: 4.0 mg/kg/injection, schedule: Q01DX Z (ip), vehicle: saline 97 % of control | endpoint: mean survival time, dose: 8.0 mg/kg/injection, schedule: Q01DX Z (ip), vehicle: saline 97 % of control | endpoint: mean survival time, dose: 16.0 mg/kg/injection, schedule: Q01DX Z (ip), vehicle: saline 102 % of control

CCN(CC)C(=O)C(Br)C(Br)C(=O)N(CC)CC (stereo not given)
inactive: endpoint: mean survival time, dose: 100.0 mg/kg/injection, schedule: Q04DX003 (ip), vehicle: acetone 100 % of control | endpoint: mean survival time, dose: 200.0 mg/kg/injection, schedule: Q04DX003 (ip), vehicle: acetone 100 % of control | endpoint: mean survival time, dose: 400.0 mg/kg/injection, schedule: Q04DX003 (ip), vehicle: acetone 92 % of control

COc1ccc(-n2c(O)c(N=Nc3ccc(Cl)cc3)c(=O)n(-c3ccccc3)c2=S)cc1
inactive: endpoint: mean survival time, dose: 37.5 mg/kg/injection, schedule: Q01DX001 (ip), vehicle: Klucel (hydroxypropylcellulose) (HPC) 89 % of control | endpoint: mean survival time, dose: 75.0 mg/kg/injection, schedule: Q01DX001 (ip), vehicle: Klucel (hydroxypropylcellulose) (HPC) 94 % of control | endpoint: mean survival time, dose: 150.0 mg/kg/injection, schedule: Q01DX001 (ip), vehicle: Klucel (hydroxypropylcellulose) (HPC) 92 % of control

O=C(O)c1cc2ccccc2c2cc(Br)ccc12
inactive: endpoint: mean survival time, dose: 100.0 mg/kg/injection, schedule: Q01DX009 (ip), vehicle: saline sonified 100 % of control | [6] 91 % of control | endpoint: mean survival time, dose: 200.0 mg/kg/injection, schedule: Q01DX009 (ip), vehicle: saline sonified 97 % of control | [7] 108 % of control | [8] 103 % of control

O=C1C2C(C(=O)N1c1ccccc1)N2CCO (stereo not given)
inactive: endpoint: mean survival time, dose: 100.0 mg/kg/injection, schedule: Q01DX009 (ip), vehicle: Klucel (hydroxypropylcellulose) (HPC) 107 % of control | [6] 113 % of control | endpoint: mean survival time, dose: 200.0 mg/kg/injection, schedule: Q01DX009 (ip), vehicle: Klucel (hydroxypropylcellulose) (HPC) 103 % of control | [7] 108 % of control | endpoint: mean survival time, dose: 400.0 mg/kg/injection, schedule: Q01DX009 (ip), vehicle: Klucel (hydroxypropylcellulose) (HPC) 97 % of control | [8] 113 % of control

CCCCCC(C(C)=O)(C1=NC(C)(C)CC(C)O1)c1ccccc1 (stereo not given)
inactive: endpoint: mean survival time, dose: 100.0 mg/kg/injection, schedule: Q04DX003 (ip), vehicle: saline sonified 103 % of control | endpoint: mean survival time, dose: 200.0 mg/kg/injection, schedule: Q04DX003 (ip), vehicle: saline sonified 120 % of control | endpoint: mean survival time, dose: 400.0 mg/kg/injection, schedule: Q04DX003 (ip), vehicle: saline sonified 111 % of control
